# Patent US20250213547A1, “METHODS OF TREATING NEUROLOGICAL DISEASES” (priority 2022, published 2025)
# What was measured:
# Type in all cases: in vivo, human
# [1] = Multiple rising dose study: safety (TEAEs) in healthy subjects over 14 days
# Description: Subjects were monitored during the study and a full review was conducted after each rising dose. Safety data monitoring included vitals, physical and visual examinations, electrocardiogram, BMI, and clinical laboratory tests. […] Percentages are rounded to one decimal place. A subject with two or more different adverse events (AE) within the same levels of the MedDRA term and treatment is counted only once at that level using the most related or severe incident. A TEAE is defined as an AE or SAE that occurs or gets worse after receiving the first dose of study drug and within 30 days after the last dose of study drug.
# [2] = Multiple rising dose study: PK of soticlestat and M-I (day 1, day 14), oral solution; details: for AUC24 mean / AUC∞, mean / Cmax, mean / Tmax, median: soticlestat plasma; for CLR, mean: soticlestat urine
# Description: The second trial was a phase I, randomized, double-blind, placebo-controlled study, with soticlestat administered by oral solution at multiple escalating doses in healthy subjects. The criteria for subject inclusion and exclusion are similar to those of the first trial described above but with the added screening of female subjects for pregnancy. […] After a cohort finished their dosage regimen, a decision was made whether to escalate the dosage for the next cohort. Cohorts 1, 2, and 3 received 100, 300, and 400 mg once daily (QD), respectively, and cohorts 4 and 5 received 300 mg twice daily (BID) or 600 mg QD. The regimen for cohorts 4 and 5 were discontinued after subjects began experiencing adverse neurological and psychiatric events. Example 6 describes the PK protocol and the results.
# The blood sampling protocol included obtaining a 4-ml blood sample for PK analysis 30 minutes pre-dose, and at 10, 15, 20, and 30 minutes and 1, 1.5, 2, 3, 4, 6, 8, 10, 12, 16, and 24 hours post-dose on days 1 and 14. Cohort 3, receiving 400 mg QD, had additional blood samples taken on day 7 at 15 and 30 minutes, and 1, 2, 4, and 8 hours post-dose. […] The median time for Cmax (Tmax) across the dose range varied between 0.33-0.5 hours. […] The 24 hour plasma area under the concentration-time curve (AUC24) for doses 100, 300, and 400 mg at day 14 were 458, 2690, and 2800 ng×h/mL, respectively. The concentration time profiles were similar from day 1 through day 14.
# This study administered soticlestat to healthy male and female adults in an oral solution at escalating daily dose levels. […] Eight subjects were randomly assigned to one of five cohorts, with two subjects in each cohort receiving a placebo. Single daily dosing occurred in the morning after a minimum fast of 8 hours and subjects continued fasting until 2 hours post-dose. […] After a full review of the safety data from cohorts 1 and 2, including vitals, physical examination, BMI, adverse events, and clinical laboratory tests, […] were approved to receive increased dosages of 300 mg twice daily (BID) and 600 mg once daily (QD), respectively.
# All cohorts had additional blood samples taken 30 minutes pre-dose on days 7, 11, 12, and 13. […] had additional blood samples taken for PK data on day 7 at post-dose times 15 and 30 minutes, and 1, 2, 4, and 8 hours. The PK parameter analysis was performed as described in example 2. […] A power model estimated the dose proportionality for Cmax and AUC∞ on day 1 and day 14 for cohorts receiving once daily dosing. An analysis of variance (ANOVA) assessed the variation in time dependency for Cmax and AUC∞ on day 1 and day 14 for cohorts receiving once daily dosing.
# Pre-dose urine samples were collected for PK analysis for 12 hours pre-dose of day 1 and for 2 hours pre-dose of day 14. Post-dose urine samples were collected at intervals of 0-6, 6-12, and 12-24 hours.
# [3] = system: plasma 24HC; assay: Single dose pharmacodynamics: plasma 24HC
# Description: The concentration of 24HC was measured by obtaining an 8 ml blood sample collected 30 minutes pre-dose time and 0.5, 1, 2, 4, 6, 8, 12, and 16 hours prior to dosing day, and then 30 minutes pre-dose time and at times 0.5, 1, 2, 4, 6, 8, 12, 16, 24, 48, 72, and 96 hours post-dose. Plasma 24HC levels were measured by incubating plasma in sodium hydroxide and methanol and then performing liquid-liquid extraction and HPLC-MS/MS multiple reaction monitoring. […] Assay quality control measures, parameter analyses, and statistical analyses were performed as described in example 3. […] All dosage groups returned to 24HC baseline values by 96 hours.
structure (smiles),measurement,setting,value
O=C(c1cccnc1-c1ccncc1)N1CCC(O)(Cc2ccccc2)CC1 [soticlestat],"Deaths, number of subjects (%)","[1]; 100 mg QD, n = 6",0 subjects (%)
same,"Deaths, number of subjects (%)","[1]; 300 mg BID, n = 6",0 subjects (%)
same,"Deaths, number of subjects (%)","[1]; 300 mg QD, n = 6",0 subjects (%)
same,"Deaths, number of subjects (%)","[1]; 400 mg QD, n = 6",0 subjects (%)
same,"Mild TEAEs, number of subjects (%)","[1]; 400 mg QD, n = 6",4 (66.7) subjects (%)
same,"Related TEAEs, number of subjects (%)","[1]; 400 mg QD, n = 6",4 (66.7) subjects (%)
same,"Deaths, number of subjects (%)","[1]; 600 mg QD, n = 6",0 subjects (%)
same,"Mild TEAEs, number of subjects","[1]; both, human, in vivo, 14 days",12 subjects
same,"Moderate TEAEs, number of subjects","[1]; both, human, in vivo, 14 days",1 subjects
same,TEAEs mild and transient,"[1]; both, human, in vivo, 14 days",91%
same,"TEAEs, number of subjects","[1]; both, human, in vivo, 14 days",14 subjects
same,number of TEAEs reported,"[1]; human, in vivo",Forty-five
same,"Not related TEAEs, number of subjects","[1]; human, in vivo, 14 days",1 subjects
same,"Related TEAEs, number of subjects","[1]; human, in vivo, 14 days",13 subjects
same,"SAEs, number of subjects","[1]; human, in vivo, 14 days",0 subjects
same,"Severe TEAEs, number of subjects","[1]; human, in vivo, 14 days",1 subjects
same,"TEAEs leading to halt, number of subjects","[1]; human, in vivo, 14 days",2 subjects
same,"Deaths, number of subjects","[1]; soticlestat total, n = 30",0 subjects
same,"accumulated exposure, AUC24 day 14","[2]; both, human, in vivo, 300 mg",~1.42 fold
same,"accumulated exposure, Cmax day 14","[2]; both, human, in vivo, 300 mg, 14 days",approximately 1.74 fold
same,"t½z, mean","[2]; both, human, in vivo, 600 mg",290 min
same,"CL/F, mean","[2]; human, in vivo, 600 mg",194 L/h
same,AUC24 mean,[2]; 100 mg QD day 1,446 ng·h/mL
same,"AUC∞, mean",[2]; 100 mg QD day 1,451 ng·h/mL
same,"Cmax, mean",[2]; 100 mg QD day 1,468 ng/mL
same,"Tmax, median",[2]; 100 mg QD day 1,25.2 min
same,AUC24 mean,[2]; 100 mg QD day 14,458 ng·h/mL
same,"AUC∞, mean",[2]; 100 mg QD day 14,509 ng·h/mL
same,"Cmax, mean",[2]; 100 mg QD day 14,481 ng/mL
same,"Tmax, median",[2]; 100 mg QD day 14,25.2 min
same,AUC24 mean,[2]; 300 mg BID day 1 (first dose),1460 ng·h/mL
same,"AUC∞, mean",[2]; 300 mg BID day 1 (first dose),1510 ng·h/mL
same,"Cmax, mean",[2]; 300 mg BID day 1 (first dose),1330 ng/mL
same,"Tmax, median",[2]; 300 mg BID day 1 (first dose),26.4 min
same,AUC24 mean,[2]; 300 mg QD day 1,2030 ng·h/mL
same,"AUC∞, mean",[2]; 300 mg QD day 1,2040 ng·h/mL
same,"Cmax, mean",[2]; 300 mg QD day 1,2020 ng/mL
same,"Tmax, median",[2]; 300 mg QD day 1,25.2 min
same,AUC24 mean,[2]; 300 mg QD day 14,2690 ng·h/mL
same,"AUC∞, mean",[2]; 300 mg QD day 14,2840 ng·h/mL
same,"Cmax, mean",[2]; 300 mg QD day 14,3100 ng/mL
same,"Tmax, median",[2]; 300 mg QD day 14,19.8 min
same,AUC24 mean,[2]; 400 mg QD day 1,2500 ng·h/mL
same,"AUC∞, mean",[2]; 400 mg QD day 1,2520 ng·h/mL
same,"Cmax, mean",[2]; 400 mg QD day 1,2630 ng/mL
same,"Tmax, median",[2]; 400 mg QD day 1,19.8 min
same,AUC24 mean,[2]; 400 mg QD day 14,2800 ng·h/mL
same,"AUC∞, mean",[2]; 400 mg QD day 14,3090 ng·h/mL
same,"Cmax, mean",[2]; 400 mg QD day 14,2930 ng/mL
same,"Tmax, median",[2]; 400 mg QD day 14,19.8 min
same,AUC24 mean,[2]; 600 mg QD day 1,4180 ng·h/mL
same,"AUC∞, mean",[2]; 600 mg QD day 1,4220 ng·h/mL
same,"Cmax, mean",[2]; 600 mg QD day 1,3060 ng/mL
same,"Tmax, median",[2]; 600 mg QD day 1,30 min
same,"CLR, mean",[2]; 100 mg QD day 1,0.220 L/h
same,"CLR, mean",[2]; 100 mg QD day 14,0.200 L/h
same,"CLR, mean",[2]; 300 mg BID day 1,0.350 L/h
same,"CLR, mean",[2]; 300 mg QD day 1,0.300 L/h
same,"CLR, mean",[2]; 300 mg QD day 14,0.220 L/h
same,"CLR, mean",[2]; 400 mg QD day 1,0.370 L/h
same,"CLR, mean",[2]; 400 mg QD day 14,0.380 L/h
same,"CLR, mean",[2]; 600 mg QD day 1,0.340 L/h
same,maximum 24HC decrease,"[3]; 900 mg single dose, 16 hours post-dose",approximately 23%
same,AUEC96 decrease compared to placebo,[3]; single dose,approximately 28.7%
